Measured values from patent US20100075907A1, “NEUROMEDIN U RECEPTOR AGONISTS AND USES THEREOF” (priority 2006, published 2010).
Starred links: 1 amine or outer side, 2 acyl side, 3 side chain; linkers in the order of their positions; H or OH if unused. Residues, ends and D or L forms follow the SMILES beside them. No end group written: not given here. *: point of attachment. X2 = CCN1C(=O)CC(SC[C@H](NC(C)=O)C(=O)NCCCOCCOCCOCCCN*)C1=O; Succinimide(1-Et,3-yl) = CCN1C(=O)CC(*)C1=O; Palmitoyl = CCCCCCCCCCCCCCCC(=O)*; Suc = O=C(CCC(=O)[*:2])[*:1]

Molecular target: rat NMUR2 (Rattus norvegicus, UniProt Q9ESQ4)
Assay: FLIPR calcium mobilization assay, rat NMUR2
Type: cell-based
Set-up: expressed in transfected cells; host or cells: FLP-In CHO or HEK-293 FLP-In cells (pcDNA5)
Conditions: rat NMUR2; for EC50: FLIPR; for % Activity: maximum response at 1 μM compared to hNMU-25
Excerpt: Human, mouse or rat cDNAs encoding NMUR1 or NMUR2 (as described in Howard et al. Nature 406: 70-74 (2000) were subcloned in pcDNA5 (Invitrogen) and transfected into FLP-In CHO cells and HEK-293 FLP-In cells purchased from Invitrogen (Carlsbad, Calif.) using lipofectamine (Invitrogen). The Flp-In system allows integration and expression of a particular gene of interest at a specific genomic location utilizing the Flp recombinase from yeast. The transfected cells were selected by growth in medium containing 200 μg/mL hygromycin (Invitrogen). Populations were frozen at early passage numbers, and these stocks were used for further studies. Stable clones that expressed the mRNAs were identified functionally by FLIPR as well as by RT-PCR. […] Two different rodent NMUR1 cell lines were thus generated: one with the codon as predicted from the genomic databases and another cell line with an engineered methionine (ATG) as the start codon. Additionally, stable cell lines expressing the human receptors were generated in HEK-293/aeq17 cells which stably express the aequorin gene under the CMV promoter. The human NMUR2 cDNA was cloned into pcDNA3.1 and human NMUR1 was subcloned into pIRES-puro (Clontech, Mountain View, Calif.), after transfection cells were selected in media containing G418 and either hygromycin (NMUR2) or puromycin (NMUR1).
The NMU receptors signal primarily through Gαq/11 proteins; therefore calcium mobilization assays can be utilized for functional activity.
Stable cell lines expressing human and or rodent NMUR1 or human NMUR2 receptors were plated at a density of 12,000 cells per well overnight on poly-lysine coated 384-well black-walled plates. The following day, the media was removed from the plates and the cells were subsequently loaded with Fluo-3 (Molecular Probes), a calcium sensitive dye, diluted in FLIPR buffer (1× Hank's buffered saline containing 20 mM HEPES, 0.1% BSA, 2.5 mM probenecid (Sigma) and 1.6 mM TR40). All reagents are from Invitrogen unless otherwise noted. Peptide stocks were resuspended in DMSO at a stock concentration of 2 mM and diluted in FLIPR buffer on the day of the experiment to a 4 μM working stock solution.
After a 90 minute incubation at room-temperature, cell plates were loaded onto a FLIPR (Molecular Devices) to monitor cellular fluorescence (excitation=488 nm; emission=540 nm) before and after compound/peptide addition. Eight to twelve point dose responses were tested on NMUR-expressing cell lines using FLIPR with 1 μM peptide as the highest dose. The response after peptide addition was taken as the maximum fluorescence units minus the fluorescence immediately prior to stimulation for each well. EC50 values were calculated using GraphPad Prism (San Diego, Calif.) software.
In vitro responses of Neuromedin U receptor agonists (NMU1 to NMU25) in the FLIPR assay for human (Table 3), mouse (Table 4) and rat (Table 5) NMUR1 and NMUR2. EC50s are reported in nM values. Percent activity refers to the maximum response at 1 μM compared to the hNMU-25 response at the same concentration. NT=not tested.

rat NMUR2, sequence (Q9ESQ4 whole entry): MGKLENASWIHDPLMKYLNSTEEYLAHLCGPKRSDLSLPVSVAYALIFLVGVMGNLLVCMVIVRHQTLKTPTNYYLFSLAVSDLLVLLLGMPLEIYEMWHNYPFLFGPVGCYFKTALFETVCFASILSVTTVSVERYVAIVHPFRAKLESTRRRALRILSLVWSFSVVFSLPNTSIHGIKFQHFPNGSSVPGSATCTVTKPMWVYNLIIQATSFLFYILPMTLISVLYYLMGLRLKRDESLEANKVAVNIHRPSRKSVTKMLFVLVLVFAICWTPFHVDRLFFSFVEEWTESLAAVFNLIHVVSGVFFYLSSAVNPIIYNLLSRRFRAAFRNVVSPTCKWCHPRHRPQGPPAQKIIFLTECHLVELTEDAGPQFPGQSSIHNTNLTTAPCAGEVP

Row | Compound | EC50 [nM] | % Activity [%]
1 | CCN1C(=O)CC(SC[C@H](NC(C)=O)C(=O)NCCCOCCOCCOCCCNC(=O)CCC(=O)N[C@@H](Cc2ccccc2)C(=O)N[C@@H](CC(C)C)C(=O)N[C@@H](Cc2ccccc2)C(=O)N[C@@H](CCCNC(=N)N)C(=O)N2CCC[C@H]2C(=O)N[C@@H](CCCNC(=N)N)C(=O)N[C@@H](CC(N)=O)C(N)=O)C1=O (stereo partly shown) [NMU15, Ac-C1-Ttds-FLFRPRN-CONH2] ({X2-Suc}-FLFRPRN-NH2) | 2.2 | 100
2 | CCN1C(=O)CC(SC[C@H](NC(C)=O)C(=O)N[C@@H](C)C(=O)N[C@@H](CO)C(=O)N[C@@H](CCC(N)=O)C(=O)N[C@@H](CO)C(=O)N[C@@H](CCCNC(=N)N)C(=O)NCC(=O)N[C@@H](Cc2ccc(O)cc2)C(=O)N[C@@H](Cc2ccccc2)C(=O)N[C@@H](CC(C)C)C(=O)N[C@@H](Cc2ccccc2)C(=O)N[C@@H](CCCNC(=N)N)C(=O)N2CCC[C@H]2C(=O)N[C@@H](CCCNC(=N)N)C(=O)N[C@@H](CC(N)=O)C(N)=O)C1=O (stereo partly shown) [NMU17] (Ac-C(Succinimide(1-Et,3-yl))ASQSRGYFLFRPRN-NH2) |  | 100
3 | CCN1C(=O)CC(SC[C@H](NC(C)=O)C(=O)N[C@@H](Cc2ccccc2)C(=O)N[C@@H](CCC(N)=O)C(=O)N[C@@H](CO)C(=O)N2CCC[C@H]2C(=O)N[C@@H](Cc2ccccc2)C(=O)N[C@@H](C)C(=O)N[C@@H](CO)C(=O)N[C@@H](CCC(N)=O)C(=O)N[C@@H](CO)C(=O)N[C@@H](CCCNC(=N)N)C(=O)NCC(=O)N[C@@H](Cc2ccc(O)cc2)C(=O)N[C@@H](Cc2ccccc2)C(=O)N[C@@H](CC(C)C)C(=O)N[C@@H](Cc2ccccc2)C(=O)N[C@@H](CCCNC(=N)N)C(=O)N2CCC[C@H]2C(=O)N[C@@H](CCCNC(=N)N)C(=O)N[C@@H](CC(N)=O)C(N)=O)C1=O (stereo partly shown) [NMU19] (Ac-C(Succinimide(1-Et,3-yl))FQSPFASQSRGYFLFRPRN-NH2) |  | 100
4 | Ac-C2FQSPFASQSRGYFLFRPRN-CONH2 ({Ac-C(PEG 40 kDa)}-FQSPFASQSRGYFLFRPRN-NH2; not fully specified; printed as Ac-C2FQSPFASQSRGYFLFRPRN-CONH2) [NMU20, C2 = Cys(PEG)240 kDa] | 16.9 | 
5 | Ac-C2FRVDEEFQSPFASQSRGYFLFRPRN-CONH2 [NMU9] ({Ac-C(PEG 40 kDa)}-FRVDEEFQSPFASQSRGYFLFRPRN-NH2) [C2 = Cys(PEG)240 kDa from Nektar (mPEG2-MAL-40 k)] | 4.5 | 
6 | Ac-FRVDEEFQSPFASQSRGYFLFRPRN-NH2 [NMU2] | 2.2 | 100
7 | Ac-FRVDEEFQSPFASQSRPYFLFRPRN-NH2 [NMU5] |  | 100
8 | GYFLFRPRN-NH2 [NMU3] |  | 100
9 | H-FRVDEEFQSPFASQSRPYFLFRPRN-NH2 [NMU4] |  | 100

Next, values leading:

Row | EC50 [nM] | % Activity [%] | Compound
10 |  | 98.8 | CCN1C(=O)CC(SC[C@H](NC(C)=O)C(=O)N[C@@H](CSC2CC(=O)N(CC)C2=O)C(=O)N[C@@H](Cc2ccccc2)C(=O)N[C@@H](CCCNC(=N)N)C(=O)N[C@H](C(=O)N[C@@H](CC(=O)O)C(=O)N[C@@H](CCC(=O)O)C(=O)N[C@@H](CCC(=O)O)C(=O)N[C@@H](Cc2ccccc2)C(=O)N[C@@H](CCC(N)=O)C(=O)N[C@@H](CO)C(=O)N2CCC[C@H]2C(=O)N[C@@H](Cc2ccccc2)C(=O)N[C@@H](C)C(=O)N[C@@H](CO)C(=O)N[C@@H](CCC(N)=O)C(=O)N[C@@H](CO)C(=O)N[C@@H](CCCNC(=N)N)C(=O)NCC(=O)N[C@@H](Cc2ccc(O)cc2)C(=O)N[C@@H](Cc2ccccc2)C(=O)N[C@@H](CC(C)C)C(=O)N[C@@H](Cc2ccccc2)C(=O)N[C@@H](CCCNC(=N)N)C(=O)N2CCC[C@H]2C(=O)N[C@@H](CCCNC(=N)N)C(=O)N[C@@H](CC(N)=O)C(N)=O)C(C)C)C1=O (stereo partly shown) [NMU22] (Ac-C(Succinimide(1-Et,3-yl))C(Succinimide(1-Et,3-yl))FRVDEEFQSPFASQSRGYFLFRPRN-NH2)
11 |  | 52.2 | CCCCCCCCCCCCCCCC(=O)N[C@@H](CSC1CC(=O)N(CC)C1=O)C(=O)N[C@@H](Cc1ccccc1)C(=O)N[C@@H](CCCNC(=N)N)C(=O)N[C@H](C(=O)N[C@@H](CC(=O)O)C(=O)N[C@@H](CCC(=O)O)C(=O)N[C@@H](CCC(=O)O)C(=O)N[C@@H](Cc1ccccc1)C(=O)N[C@@H](CCC(N)=O)C(=O)N[C@@H](CO)C(=O)N1CCC[C@H]1C(=O)N[C@@H](Cc1ccccc1)C(=O)N[C@@H](C)C(=O)N[C@@H](CO)C(=O)N[C@@H](CCC(N)=O)C(=O)N[C@@H](CO)C(=O)N[C@@H](CCCNC(=N)N)C(=O)NCC(=O)N[C@@H](Cc1ccc(O)cc1)C(=O)N[C@@H](Cc1ccccc1)C(=O)N[C@@H](CC(C)C)C(=O)N[C@@H](Cc1ccccc1)C(=O)N[C@@H](CCCNC(=N)N)C(=O)N1CCC[C@H]1C(=O)N[C@@H](CCCNC(=N)N)C(=O)N[C@@H](CC(N)=O)C(N)=O)C(C)C (stereo partly shown) [NMU24] (Palmitoyl-C(Succinimide(1-Et,3-yl))FRVDEEFQSPFASQSRGYFLFRPRN-NH2)
12 | 47.4 | 90.2 | Ac-C4-C4-FRVDEEFQSPFASQSRGYFLFRPRN-CONH2 ({Ac-C(PEG 20 kDa)-C(PEG 20 kDa)}-FRVDEEFQSPFASQSRGYFLFRPRN-NH2) [NMU23, C4 = Cys(PEG)20 kDa]
13 | 7 | 99.2 | Ac-C4FRVDEEFQSPFASQSRGYFLFRPRN-CONH2 ({Ac-C(PEG 20 kDa)}-FRVDEEFQSPFASQSRGYFLFRPRN-NH2) [NMU21, C4 = Cys(PEG)20 kDa]
14 | 37.8 | 96.4 | Pam-C2FRVDEEFQSPFASQSRGYFLFRPRN-CONH2 ({Palmitoyl-C(PEG 40 kDa)}-FRVDEEFQSPFASQSRGYFLFRPRN-NH2) [NMU25, Pam = palmitoyl; C2 = Cys(PEG)240 kDa]
